Here are results for five molecules from patent US12590069B2, “Crystalline salts of a plasma kallikrein inhibitor” (BioCryst Pharmaceuticals, Inc., priority 2018, dated 2026).

Series [1] can be described thus: Phase I multiple ascending oral dose pharmacokinetics in healthy subjects (plasma, LC-MS/MS). The format is in vivo, human. To be noted: for Ctau (trough plasma concentration at end of dosing interval) / Cmax / AUC / Tmax: healthy subjects; for Ctau (trough plasma concentration at end of dosing interval) / Cmax / AUC: geometric mean; for Cmax / AUC / Tmax: human, plasma, po; for Tmax: median. On the procedure:
As part of a Phase I, double-blind, placebo-controlled dose-ranging study, the pharmacokinetics of multiple ascending oral doses of Compound I·2 (HCl) were evaluated in healthy subjects. Four ascending dose cohorts were enrolled for dosing in a sequential manner. At the start, twelve subjects were randomized into each cohort for administration of a 7-day or 14-day course of study drug (n=10/cohort received Compound I·2 (HCl) and n=2/cohort received matching placebo) according to the following dose regimens: 125 mg Compound I·2 (HCl) or placebo once per day (QD) for 7 days in Cohort 1; 250 mg Compound I·2 (HCl) or placebo QD for 7 days in Cohort 2; 500 mg Compound I·2 (HCl) or placebo QD for 7 days in Cohort 3; […] Overall, 37 out of the 40 subjects receiving multiple doses of Compound I·2 (HCl) completed their respective dose regimens and were available for assessment of PK parameters at either Day 7 or Day 14.
Serial blood samples were drawn for pharmacokinetic analysis before dose administration on Day 7 or Day 14, and over the following 24 hours. The plasma samples for determination of Compound I·2 (HCl) concentrations were analyzed with the use of a validated LC-MS/MS (Liquid Chromatography with tandem mass spectrometry) bioanalytical assay.
Plasma Compound I·2 (HCl) concentration versus time profiles on Day 7 after QD oral administration of Compound I·2 (HCl) at 125, 250, and 500 mg QD, and on Day 14 after QD oral administration of Compound I·2 (HCl) at 350 mg QD, are shown in FIG. 3.
Table 1 provides a summary of plasma pharmacokinetic parameters [the maximum (peak) plasma drug concentration (Cmax), time (observed time point) to reach maximum (peak) plasma drug concentration following drug administration (Tmax), the observed trough plasma concentration at the end of the dosing interval (Ctau), and the area under the plasma concentration-time curve over the dosing interval (AUCtau)] following 7 or 14 days of multiple oral doses of Compound I·2 (HCl).

Series [2] concerns hereditary angioedema (HAE). To be noted: HAE patients; cited from earlier work.
For the next series, the system named is arthritis. To be noted: rat models of arthritis; cited from earlier work.
For series [3], the system named is lipopolysaccharide (LPS)- or bacterial-induced sepsis. Conditions: LPS- or bacterial-induced sepsis in animals; cited from earlier work.
Another series relates to sepsis. To be noted: cited from earlier work.
In series [4] the test system is middle cerebral artery occlusion (MCAO). Conditions: mouse MCAO model; cited from earlier work.
[5] abbreviates: across the full 4-fold dose range (125 mg to 500 mg QD).
Setting [6] is: 125 mg, 125 mg QD oral, Day 7 (N = 10).
[7] abbreviates: 350 mg, 350 mg QD oral, Day 14 (N = 9).
The mark [8] stands for this setting: 350 mg, third dose column, 350 mg QD, Day 7 (N = 9), oral.
The mark [9] stands for this setting: 500 mg, second dose column, 500 mg QD, Day 7 (N = 9), oral.

Structures can show the parent of a compound that is named as a salt.

For `N#Cc1cccc([C@@H](NCC2CC2)c2ccc(F)c(NC(=O)c3cc(C(F)(F)F)nn3-c3cccc(CN)c3)c2)c1` [Compound I•2(HCl)], the “Ctau (trough plasma concentration at end of dosing interval)” value turned out to be 46.1 ng/mL in series [1] (125 mg QD oral, Day 7 (N = 10)) and 101 ng/mL in series [1] (second dose column, 500 mg QD, Day 7 (N = 9), oral). For the same molecule, the “Increase in geometric mean AUCtau” value in series [1] (setting [5]) came to 5.1 fold. Moreover, the “Increase in geometric mean Cmax” value in series [1] (setting [5]) turned out to be 5.3 fold. Moreover, the Cmax in series [1] (setting [6]) was found to be 0.0978 µg/mL; in series [1] (setting [7]), 0.363 µg/mL; in series [1] (setting [8]), 0.517 µg/mL; in series [1] (setting [9]) it was 0.217 µg/mL. Also, the AUC in series [1] (setting [6]) amounted to 1.6 µg·h/mL; in series [1] (setting [7]), 5.72 µg·h/mL; in series [1] (setting [8]), 8.23 µg·h/mL; in series [1] (setting [9]) it was 3.71 µg·h/mL. Besides, the Tmax in series [1] (setting [6]) stood at 5 h; in series [1] (setting [9]), 6 h. For the same molecule, the “Dose proportionality of exposure” value in series [1] (increase from 125 mg to 250 mg QD and 250 mg to 500 mg QD) is on record as “reasonable dose proportionality”.

Consider `NC(N)=NCCC[C@@H](N)C(=O)N[C@@H](CCCN=C(N)N)C(=O)N1CCC[C@H]1C(=O)N1C[C@H](O)C[C@H]1C(=O)NCC(=O)N[C@@H](Cc1cccs1)C(=O)N[C@@H](CO)C(=O)N1Cc2ccccc2C[C@@H]1C(=O)N1[C@H](C(=O)N[C@@H](CCCN=C(N)N)C(=O)O)C[C@@H]2CCCC[C@@H]21` [Icatibant], for which the “Efficacy in treating HAE” value in series [2] is given as “effective in treating HAE”.

Regarding `Cl.NCC1CCC(C(=O)N[C@@H](Cc2ccccc2)C(=O)Nc2ccc(CC(=O)O)cc2)CC1` (stereo partly drawn) [PKSI-527], in the series on arthritis, the Joint swelling entry is given as “reduce joint swelling”.

In the case of “H-D-Pro-Phe-Arg-chloromethylketone [H-D-Pro-Phe-Arg-chloromethylketone (CMK), reference compound]”, in series [3], the “Vascular permeability in multiple organs and lesions” value is “reduce vascular permeability in multiple organs and reduce lesions”.

B1: C1-inhibitor: physiological inhibitor of kallikrein in human plasma (protein, UniProt P05155 23-500, looked up)
Plasma protease C1 inhibitor: NPNATSSSSQDPESLQDRGEGKVATTVISKMLFVEPILEVSSLPTTNSTTNSATKITANTTDEPTTQPTTEPTTQPTIQPTQPTTQLPTDSPTQPTTGSFCPGPVTLCSDLESHSTEAVLGDALVDFSLKLYHAFSAMKKVETNMAFSPFSIASLLTQVLLGAGENTKTNLESILSYPKDFTCVHQALKGFTTKGVTSVSQIFHSPDLAIRDTFVNASRTLYSSSPRVLSNNSDANLELINTWVAKNTNNKISRLLDSLPSDTRLVLLNAIYLSAKWKTTFDPKKTRMEPFHFKNSVIKVPMMNSKKYPVAHFIDQTLKAKVGQLQLSHNLSLVILVPQNLKHRLEDMEQALSPSVFKAIMEKLEMSKFQPTLLTLPRIKVTTSQDMLSIMEKLEFFDFSYDLNLCGLTEDPDLQVSAMQHQTVLELTETGVEAAAASAISVARTLLVFEVQQPFLFVLWDQQHKFPVFMGRVYDPRA
For the molecule B1, the “Vascular permeability in multiple organs and lesions” value in series [3] was “reduce vascular permeability in multiple organs and reduce lesions”. Also, in the series on sepsis, the “Clinical outcome in sepsis patients” value is on record as “Clinical improvement”. Besides, the Infarct size result in series [4] was “reduced infarct size”.
